# Measurements as given in the supplement of paper PMC10307832.
# Legend:
# Experiment in all cases: relative viability (nuclei count vs DMSO), 5 days (fraction); higher = more cells survive
# EKVX = tested on: EKVX
# Summary of the method: (§1)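 Each reported value is a median over duplicate plates. It expresses relative viability: treated-well nuclei count divided by vehicle-well nuclei count. Lung cancer cell lines in 1536-well plates were dosed by pin tool a day after seeding, alone with one drug or with a fixed anchor-drug dose plus five library-drug doses (not always all listed) in √10 steps, and nuclei were counted after 5 days.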
# NCI-H1755 = tested on: NCI-H1755
# Summary of the method: as §1
# NCI-H1734 = tested on: NCI-H1734
# Summary of the method: as §1
# NCI-H2342 = tested on: NCI-H2342
# Summary of the method: as §1
# NCI-H1993 = tested on: NCI-H1993
# Summary of the method: as §1
# NCI-H358 = tested on: NCI-H358
# Summary of the method: as §1
# NCI-H838 = tested on: NCI-H838
# Summary of the method: as §1
# PC-14 = tested on: PC-14
# Summary of the method: as §1
# UMC-11 = tested on: UMC-11
# Summary of the method: as §1
# NCI-H2009 = tested on: NCI-H2009
# Summary of the method: as §1
# NCI-H647 = tested on: NCI-H647
# Summary of the method: as §1
# HARA = tested on: HARA
# Summary of the method: as §1
# NCI-H1355 = tested on: NCI-H1355
# Summary of the method: as §1
# HOP-62 = tested on: HOP-62
# Summary of the method: as §1
# COR-L23 = tested on: COR-L23
# Summary of the method: as §1
# NCI-H2228 = tested on: NCI-H2228
# Summary of the method: as §1
# NCI-H1793 = tested on: NCI-H1793
# Summary of the method: as §1
# NCI-H1395 = tested on: NCI-H1395
# Summary of the method: as §1
# NCI-H2347 = tested on: NCI-H2347
# Summary of the method: as §1
# HCC-15 = tested on: HCC-15
# Summary of the method: as §1
# SK-MES-1 = tested on: SK-MES-1
# Summary of the method: as §1
# NCI-H2170 = tested on: NCI-H2170
# Summary of the method: as §1
# COR-L 105 = tested on: COR-L 105
# Summary of the method: as §1
structure (smiles),measurement,setting,value
CC1(C)CCC(c2ccc(Cl)cc2)=C(CN2CCN(c3ccc(C(=O)NS(=O)(=O)c4ccc(N[C@H](CCN5CCOCC5)CSc5ccccc5)c(S(=O)(=O)C(F)(F)F)c4)cc3)CC2)C1 [Navitoclax] + N=C(N)NC(=N)NCCc1ccccc1 [Phenformin] (partner 250 µM),relative viability,EKVX; first compound 0.005 µM,0.262
same,relative viability,EKVX; first compound 0.01581 µM,0.238
same,relative viability,EKVX; first compound 0.05 µM,0.226
same,relative viability,EKVX; first compound 0.1581 µM,0.239
same,relative viability,EKVX; first compound 0.5 µM,0.235
same,relative viability,NCI-H1755; first compound 0.005 µM,0.639
same,relative viability,NCI-H1755; first compound 0.01581 µM,0.659
same,relative viability,NCI-H1755; first compound 0.05 µM,0.575
same,relative viability,NCI-H1755; first compound 0.1581 µM,0.521
same,relative viability,NCI-H1755; first compound 0.5 µM,0.43
same,relative viability,NCI-H1734; first compound 0.005 µM,0.367
same,relative viability,NCI-H1734; first compound 0.01581 µM,0.461
same,relative viability,NCI-H1734; first compound 0.1581 µM,0.371
same,relative viability,NCI-H1734; first compound 0.5 µM,0.341
same,relative viability,NCI-H2342; first compound 0.005 µM,0.602
same,relative viability,NCI-H2342; first compound 0.01581 µM,0.627
same,relative viability,NCI-H2342; first compound 0.05 µM,0.486
same,relative viability,NCI-H2342; first compound 0.1581 µM,0.599
same,relative viability,NCI-H2342; first compound 0.5 µM,0.624
same,relative viability,NCI-H1993; first compound 0.005 µM,0.545
same,relative viability,NCI-H1993; first compound 0.01581 µM,0.498
same,relative viability,NCI-H1993; first compound 0.05 µM,0.629
same,relative viability,NCI-H1993; first compound 0.1581 µM,0.587
same,relative viability,NCI-H1993; first compound 0.5 µM,0.616
same,relative viability,NCI-H358; first compound 0.005 µM,0.362
same,relative viability,NCI-H358; first compound 0.01581 µM,0.376
same,relative viability,NCI-H358; first compound 0.05 µM,0.357
same,relative viability,NCI-H358; first compound 0.1581 µM,0.343
same,relative viability,NCI-H358; first compound 0.5 µM,0.424
same,relative viability,NCI-H838; first compound 0.005 µM,0.529
same,relative viability,NCI-H838; first compound 0.01581 µM,0.735
same,relative viability,NCI-H838; first compound 0.05 µM,0.757
same,relative viability,NCI-H838; first compound 0.1581 µM,0.749
same,relative viability,NCI-H838; first compound 0.5 µM,0.664
same,relative viability,PC-14; first compound 0.005 µM,0.611
same,relative viability,PC-14; first compound 0.01581 µM,0.598
same,relative viability,PC-14; first compound 0.05 µM,0.57
same,relative viability,PC-14; first compound 0.1581 µM,0.541
same,relative viability,PC-14; first compound 0.5 µM,0.616
same,relative viability,UMC-11; first compound 0.005 µM,0.303
same,relative viability,UMC-11; first compound 0.01581 µM,0.323
same,relative viability,UMC-11; first compound 0.05 µM,0.35
same,relative viability,UMC-11; first compound 0.1581 µM,0.242
same,relative viability,UMC-11; first compound 0.5 µM,0.273
same,relative viability,NCI-H2009; first compound 0.005 µM,0.495
same,relative viability,NCI-H2009; first compound 0.01581 µM,0.519
same,relative viability,NCI-H2009; first compound 0.05 µM,0.435
same,relative viability,NCI-H2009; first compound 0.1581 µM,0.47
same,relative viability,NCI-H2009; first compound 0.5 µM,0.484
same,relative viability,NCI-H647; first compound 0.005 µM,0.536
same,relative viability,NCI-H647; first compound 0.01581 µM,0.488
same,relative viability,NCI-H647; first compound 0.05 µM,0.651
same,relative viability,NCI-H647; first compound 0.1581 µM,0.323
same,relative viability,NCI-H647; first compound 0.5 µM,0.445
same,relative viability,HARA; first compound 0.005 µM,0.491
same,relative viability,HARA; first compound 0.01581 µM,0.554
same,relative viability,HARA; first compound 0.1581 µM,0.415
same,relative viability,HARA; first compound 0.5 µM,0.477
same,relative viability,NCI-H1355; first compound 0.005 µM,0.48
same,relative viability,NCI-H1355; first compound 0.01581 µM,0.467
same,relative viability,NCI-H1355; first compound 0.05 µM,0.388
same,relative viability,NCI-H1355; first compound 0.1581 µM,0.436
same,relative viability,NCI-H1355; first compound 0.5 µM,0.463
same,relative viability,HOP-62; first compound 0.005 µM,0.639
same,relative viability,HOP-62; first compound 0.01581 µM,0.673
same,relative viability,HOP-62; first compound 0.05 µM,0.65
same,relative viability,HOP-62; first compound 0.1581 µM,0.669
same,relative viability,HOP-62; first compound 0.5 µM,0.702
same,relative viability,COR-L23; first compound 0.005 µM,0.409
same,relative viability,COR-L23; first compound 0.01581 µM,0.494
same,relative viability,COR-L23; first compound 0.05 µM,0.516
same,relative viability,COR-L23; first compound 0.1581 µM,0.438
same,relative viability,COR-L23; first compound 0.5 µM,0.447
same,relative viability,NCI-H2228; first compound 0.005 µM,0.35
same,relative viability,NCI-H2228; first compound 0.01581 µM,0.385
same,relative viability,NCI-H2228; first compound 0.1581 µM,0.276
same,relative viability,NCI-H2228; first compound 0.5 µM,0.418
same,relative viability,NCI-H1793; first compound 0.005 µM,0.527
same,relative viability,NCI-H1793; first compound 0.01581 µM,0.445
same,relative viability,NCI-H1793; first compound 0.1581 µM,0.309
same,relative viability,NCI-H1793; first compound 0.5 µM,0.313
same,relative viability,NCI-H1395; first compound 0.005 µM,0.461
same,relative viability,NCI-H1395; first compound 0.01581 µM,0.501
same,relative viability,NCI-H1395; first compound 0.05 µM,0.451
same,relative viability,NCI-H1395; first compound 0.1581 µM,0.455
same,relative viability,NCI-H1395; first compound 0.5 µM,0.497
same,relative viability,NCI-H2347; first compound 0.005 µM,0.452
same,relative viability,NCI-H2347; first compound 0.01581 µM,0.567
same,relative viability,NCI-H2347; first compound 0.1581 µM,0.321
same,relative viability,NCI-H2347; first compound 0.5 µM,0.482
same,relative viability,HCC-15; first compound 0.005 µM,0.453
same,relative viability,HCC-15; first compound 0.01581 µM,0.488
same,relative viability,HCC-15; first compound 0.05 µM,0.406
same,relative viability,HCC-15; first compound 0.1581 µM,0.483
same,relative viability,HCC-15; first compound 0.5 µM,0.422
same,relative viability,SK-MES-1; first compound 0.005 µM,0.581
same,relative viability,SK-MES-1; first compound 0.01581 µM,0.746
same,relative viability,SK-MES-1; first compound 0.05 µM,0.684
same,relative viability,SK-MES-1; first compound 0.1581 µM,0.681
same,relative viability,SK-MES-1; first compound 0.5 µM,0.722
same,relative viability,NCI-H2170; first compound 0.005 µM,0.442
same,relative viability,NCI-H2170; first compound 0.01581 µM,0.47
same,relative viability,NCI-H2170; first compound 0.05 µM,0.391
same,relative viability,NCI-H2170; first compound 0.1581 µM,0.42
same,relative viability,NCI-H2170; first compound 0.5 µM,0.347
same,relative viability,COR-L 105; first compound 0.005 µM,0.464
same,relative viability,COR-L 105; first compound 0.01581 µM,0.746
same,relative viability,COR-L 105; first compound 0.05 µM,0.431
same,relative viability,COR-L 105; first compound 0.1581 µM,0.503
same,relative viability,COR-L 105; first compound 0.5 µM,0.405
